Tests used:
CEM-SS cells [1] = assay: Cell cytotoxicity (Table 1); type: cell-based; conditions: read-out: Inhibitory Concentration50 For: Cell Cyto-toxicity
HIV-1 [2] = conditions: persistently infected monocyte/macrophage (U1) cells
Description: Anti-HIV1 Activity of Lipid-Nucleoside Conjugates. […] In brief, CEM-SS cell monolayers were infected with HIV-1. […] Plaques were counted at five days after infection. In this assay HIV-1 syncytial plaques are seen as large, multicellular foci (10 to 25 nuclei/syncytium) that appear either brown and granular or clear. Silnce the number of HIV-1 syncytial plaques correlates with reverse transcriptase (RT) and p24 core antigen activity in the HIV-1 infected cell overlay fluids, the syncytial plaque assay can be used to quantify the amount of infectious virus. […] The activity of p24 core antigen induced by HIV-1 infection of CEM-SS cells was measured spectrophotometrically using the commercial Coulter EIA.
(§1) Anti-HIV1 Activity of Lipid-Nucleoside Conjugates in Monocyte/Macrophages. Monocyte/macrophages represent a major reservoir of HIV-1 in the infected human host. […] However, these cells tend to be resistent to dideoxynucleoside prodrugs due to low levels of kinases needed to activate the prodrugs. See C. […]

HIV-1 [3] = conditions: persistently infected monocyte/macrophage (U1) cells; remark: listed apart in the source
Description: as §1

CEM-SS cells [4] = assay: CEM-SS cell growth, 3H-Tdr pulse labelling to measure DNA synthesis; type: cell-based; conditions: Homo sapiens, 48 hours at 37°C, then 3H-Tdr pulse for 8 hours
Description: To determine the IC₅₀ for cell growth, CEM-SS cells in suspension culture (10,000 cells/ml RPMI-1640 growth medium) were incubated with serial dilutions of compound at 37°C for 48 hours and then pulsed labelled with 1 microCi of ³H-Tdr (SA = 20 Ci/mmole) for 8 hours at 37°C to measure DNA synthesis.

Compound	IC50 (CEM-SS cells [4]) [µM]	IC50 (CEM-SS cells [1]; Homo sapiens, CEM-SS) [µM]	other results
3'-Azido-3'-deoxythymidine-5'-monophosphate-D,L-3-octadecanamido-2-ethoxypropane [Compound A]			IC50 (CEM-SS cells [1]): 53.8 µM
Cc1cn([C@H]2C[C@H](N=[N+]=[N-])[C@@H](CO)O2)c(=O)[nH]c1=O [AZT, 3'-azido-3'-deoxythymidine]	5.1	5.6	Percent of Control (RT DPM) (HIV-1 [2]): 90% of Control; Percent of Control (p24 Core Ag) (HIV-1 [2]): 101% of Control; Percent of Control (PFU) (HIV-1 [3]): 87% of Control
CCCCCCCCCCCCCCCCCC(=O)NCC(COP(=O)([O-])OC(CC(=O)OC[C@H]1O[C@@H](n2cc(C)c(=O)[nH]c2=O)C[C@@H]1N=[N+]=[N-])C[N+](C)(C)C)OCC (stereo partly drawn) [BB, 3'-Azido-3-deoxythymidine-5'-butyrate-γ-N,N,N-trimethyl-ammonium-β-(1-phospho-2-ethoxy-3-octadecanamidopropane)]	13.7		
CCCCCCCCCCCCCCCCOCC(COP(=O)([O-])OC(CC(=O)OC[C@H]1O[C@@H](n2cc(C)c(=O)[nH]c2=O)C[C@@H]1N=[N+]=[N-])C[N+](C)(C)C)OCC (stereo partly drawn) [Compound AA, 3'-Azido-3'-deoxythymidine-5'-butyrate-γ-N,N,N-trimethyl-ammonium-β-(1-phospho-2-ethoxy-3-hexadecyloxypropane)]	13.5		
CCCCCCCCCCCCCCCCOCC(COP(=O)(O)OC[C@H]1O[C@@H](n2cc(C)c(=O)[nH]c2=O)C[C@@H]1N=[N+]=[N-])OCC (stereo partly drawn) [Compound B, 3'-Azido-3'-deoxythymidine-5'-monophosphate-D,L-3-hexadecyloxy-2-ethoxypropane]		35 ± 2.1	
CCCCCCCCCCCCCCCCSCC(COP(=O)(O)OC[C@H]1O[C@@H](n2cc(C)c(=O)[nH]c2=O)C[C@@H]1N=[N+]=[N-])OC (stereo partly drawn) [Compound C, 3'-Azido-3'-deoxythymidine-5'-monophosphate-D,L-3-hexadecylthio-2-methoxypropane]		29.2 ± 5.7	
O=c1[nH]cnc2c1ncn2[C@H]1CC[C@@H](CO)O1 [DDI, dideoxyinosine]		> 100	

— patent EP0533825B1, “ETHER LIPID-NUCLEOSIDE COVALENT CONJUGATES” (WAKE FOREST UNIVERSITY, priority 1990, dated 1991)
